Legend:
[1] = tested on: Trichophyton mentagrophytes; test: Minimum inhibitory concentration test; assay type: cell-based; conditions: 96 h, 25° C., 1 × 10^5/mL
Source text: (§1) In order to check the antimicrobial and antifungal performance of the ozonized surfactant, bacteriostatic and bactericidal effects of the ozonized surfactant against five kinds of microorganisms were examined. The five kinds of target microorganisms were Staphylococcus aureus as a prokaryotic gram-positive bacterium, Escherichia coli as a prokaryotic gram-negative bacterium, Saccharomyces cerevisiae and Trichophyton mentagrophytes as fungi which are eukaryotic microorganisms, and Cladosporium cladosporioides. One loopful of each strain was inoculated in a medium optimum for the strain, and cultured under culture conditions optimum for the strain to prepare a cell suspension for inoculation.
(§2) The solution A obtained in Example 4 was placed in test tubes, and was then diluted with sterilized water 2-, 4-, 8-, 16-, 32-, 64-, 128-, 256-, and 512-fold to prepare 10 levels of diluted ozonized surfactant solutions. Into L-shaped test tubes for a biophotorecorder, 9 mL of each medium shown in Table 1 was dispensed and sterilized by steam. Then, 1 mL of each of the 10 levels of diluted ozonized surfactant solutions was added aseptically to the L-shaped test tubes to prepare 10 mL of 10-, 20-, 40-, 80-, 160-, 320-, 640-, 1280-, 2560-, and 5120-fold diluted solutions of the solution A (hereinafter, referred to as a “graduated dilution series to be tested”). Into the graduated dilution series to be tested, 0.1 mL of the cell suspension for inoculation was inoculated (the initial number of cells of each microorganism is shown in Table 1). The L-shaped test tubes into which the cell suspension had been inoculated were set in a biophotorecorder (made by Advantec Toyo Kaisha, Ltd.) and subjected to shaking culture (30 rpm) under conditions shown in Table 1. The test tubes to be used were sterilized by dry heat (165° C. for 1 hour), and the media, sterilized water, and tools were sterilized by steam in an autoclave (121° C. for 15 minutes). In the following tests, they were sterilized in the same manner.
(§3) Another graduated dilution series was prepared between the temporary minimum inhibitory concentration and the concentration of the ozonized surfactant nearest to the temporary minimum inhibitory concentration, at which turbidity occurred. Then, the same operation as described above was again carried out. […] This MIC test against these five kinds of microorganisms was carried out also using, as a control, the surfactant solution before ozone treatment.

Saccharomyces cerevisiae [2] = test: Minimum inhibitory concentration test; assay type: cell-based; conditions: 48 h, 28° C., 1 × 10^6/mL
Source text: as §1, §2, §3

Staphylococcus aureus [3] = test: Minimum inhibitory concentration test; assay type: cell-based; conditions: 24 h, 37° C., 1 × 10^7/mL
Source text: as §1, §2, §3

[4] = tested on: Cladosporium cladosporioides; test: Minimum inhibitory concentration test; assay type: cell-based; conditions: 96 h, 25° C., 1 × 10^5/mL
Source text: as §1, §2, §3

Escherichia coli [5] = test: Minimum inhibitory concentration test; assay type: cell-based; conditions: 24 h, 30° C., 1 × 10^7/mL
Source text: as §1, §2, §3

[6] = tested on: Trichophyton mentagrophytes; test: Minimum bactericidal concentration test; assay type: cell-based; conditions: 96 h, 25° C.
Method: (§4) Here, the ozonized surfactant was diluted 100-fold, and therefore the ozonized surfactant was considered to be ineffective. […] [table]

Saccharomyces cerevisiae [7] = test: Minimum bactericidal concentration test; assay type: cell-based; conditions: 48 h, 28° C.
Method: as §4

Staphylococcus aureus [8] = test: Minimum bactericidal concentration test; assay type: cell-based; conditions: 24 h, 37° C.
Method: as §4

[9] = tested on: Cladosporium cladosporioides; test: Minimum bactericidal concentration test; assay type: cell-based; conditions: 96 h, 25° C.
Method: as §4

Escherichia coli [10] = test: Minimum bactericidal concentration test; assay type: cell-based; conditions: 24 h, 30° C.
Method: as §4

[11] = tested on: mold (filamentous fungus); test: Evaluation of antiseptic activity in thickener solution; assay type: cell-based; conditions: 0.1% in 3.5% Carbopol ETD2020 aqueous solution, 25° C.
Method: In order to check the antiseptic performance of ozonized surfactants, the ozonized surfactants were added to a substance susceptible to mold. […] Into a 100 mL-glass bottle, 50 mL of the sample was charged. The bottles were kept at 25° C. in a thermostatic air chamber, and temporal changes were visually observed. […] The mold-like material was removed and examined under a 700-power microscope. As a result, spores were detected and the material was identified as a filamentous fungus. The above results confirmed the antiseptic activity of the ozonized surfactants.

slug = test: Insecticidal activity: test of killing slugs; assay type: in vivo; conditions: 1% aqueous solution, 2 pushes: 1.88 mL sprayed from 15 cm above
Method: In order to check the insect control performance of the ozonized surfactant, a test of killing slugs was performed. A slug was put into a glass petri dish. Onto the slug, a 1% aqueous solution of the ozonized surfactant obtained in Example 4, 5, 7, 9 or 10 (2 pushes: 1.88 mL) was sprayed from 15 cm above. After that, the time elapsed until the slug died (the motion stopped) was measured. As a control, the same evaluation was simultaneously performed with a commercial insecticide (product name: NEW Namekuji (slug) Spray, made by Sumitomo Chemical Garden Products Inc., Lot No. 11.05 0806JE) containing a natural substituted phenol, a copper compound and an alcohol, as active ingredients.

## Ozonized POE (10 EO) oleyl ether [Example 4]
[1]
  Minimum inhibitory concentration: 0.03%
Saccharomyces cerevisiae [2]
  Minimum inhibitory concentration: 0.02%
Staphylococcus aureus [3]
  Minimum inhibitory concentration: 0.11%
[4]
  Minimum inhibitory concentration: 0.09%
Escherichia coli [5]
  Minimum inhibitory concentration: 0.25%
[6]
  Minimum bactericidal concentration: 0.03%
Saccharomyces cerevisiae [7]
  Minimum bactericidal concentration: 0.03%
Staphylococcus aureus [8]
  Minimum bactericidal concentration: 0.11%
[9]
  Minimum bactericidal concentration: 0.18%
Escherichia coli [10]
  Minimum bactericidal concentration: 0.30%
[11]
  Antiseptic activity of thickener soln. (visually observed), 1 month after: Good
  Antiseptic activity of thickener soln. (visually observed), 1 week after: Good
slug
  Death time of slug: 564 s

Source: patent US20100254928A1, “NOVEL COMPOSITION CONTAINING OZONIZED SURFACTANT” (priority 2007, published 2010)
